The text below walks through data of patent US6416965B2, “Screening methods for presqualene disphosphate analogs” (Brigham and Women's Hospital, priority 1997, dated 2002).

One assay concerns neutrophil sonicates. As to the kind of experiment: Superoxide anion generation by neutrophil sonicates (post-nuclear supernatants, cytochrome c reduction). It counts as biochemical, human. The following applies: arachidonic acid C20:4 75 μM, phosphatitic acid C10:0 100 μM. Here is the method:
Neutrophil lipids were saponified (10% KOH in methanol, 37° C., 30 min), extracted (Van Dessel, G. A. F., Lagrou, A. R. Hilderson, H. J. J. & Dierick, W. S. H. In: CRC Handbook of Chromatography (eds Mukherjee, K. D., Weber, N. & Sherma, J.) 321-337 (CRC Press, Boca Raton, 1993)) and separated by CC4 silica (1 gm/10^8 PMN) column chromatography as in FIG. 1f. […] After 2 min (37° C.) in a thermal-jacketed cuvette, β-NAPH (200 μM) was added to initiate reactions and absorbance (550 nm) was monitored at 15 second intervals. […]
To determine O2- production (FIGS. 1a-c), post-nuclear supernatants from neutrophils after sonication (0.1-0.5 mg protein/ml) (as generally described in Bromberg, Y. & Pick, E. Cell. Immunol. 88, 213-221 (1984), the teachings of which are incorporated herein by reference), 100 μM phosphatitic acid (C10:0, Avanti Polar Lipids, Inc.) and lipid extracts (0.1% ethanol) were added to cytochrome c (60 μM), sucrose (170 mM), EGTA (1 mM), FAD (10 μM), NaN3 (2 mM) and either superoxide dismutase (30 ug/ml) or H20 at 0° C. […] After 2 min (37° C.) in a thermal-jacketed cuvette, B-NADPH (200 μM) was added to initiate reactions and absorbance (550 nm) was monitored at 15 second intervals or following termination (10 minutes, 0° C.). […]

A further assay has as its system PMN. Briefly: 32PO4 incorporation into non-saponifiable lipids of PMN labeled with γ-32PO4-ATP. It counts as cell-based, human. The following applies: GM-CSF 25 ng/ml, 60 min, 37° C.; relative to cells without agonist. Here is the method:
To determine FMLP (10−^7 M)-induced changes in compound VI and VIII mass (inset), radioactive compounds were eluted and inorganic phosphorus levels were measured. In addition, PMN labeled with γ-^32PO4-ATP were incubated in the presence or absence of GM-CSF (25 ng/ml, 60 min, 37° C.)(b) with ^32P content quantitated as above. Values represent the mean±SEM for duplicate determinations from at least two separate PMN. The percent increase after exposure to GM-CSF is relative to parallel incubations with cells in the absence of agonist. **p<0.0005 and * p<0.03 by Student's paired t-test.

The next assay has as its system neutrophils. As to the kind of experiment: Neutrophil homotypic adhesion (aggregation, light transmittance). Format: cell-based, human. The protocol:
(§1) Neutrophils (10^7/500 μl) were electroporated (1.65 kV/cm, 250 μF, Ω∞, Invitrogen Electroporator VI) at 0° C. in the presence of 10−^9-10−^6 M compound VI, VIII, FDP, FMP, squalene or vehicle (ethanol 0.2%). After electroporation, cells, in cytochrome c (0.7 mg/ml), were exposed (10 minutes, 37° C.) to either cytochalasin b (5 μg/mL) and FMLP (10^−7 M)(a) or PMA ((10^−7 M)(b) and supernatants monitored at […]. Electroporation gave a 49.9% reduction in FMLP-stimulated NADPH oxidase compared to naive cells. Values (FIGS. 4a and 4b) represent the mean±SEM for n≧3, d≧6. For adhesion (FIGS. 4c and 4d), changes in light transmittance were monitored (as in Fiore, S., Nicolaou, K. C., Caulfield, T., Kataoka, H. & Serhan, C. N. Biochem. J. 266, 25-31 (1990), the teachings of which are incorporated herein by reference) after addition of compounds VI, VIII (1.6 μM) or vehicle (0.5 min) and FMLP (0.5-5 μM) (2.5 min). Cell viability remained>99%. Values represent the mean±SEM for n=3, d=9. 1,4,5-inositol-triphosphate levels were determined (Amersham) in fresh PMN (10^7 cells) exposed (5 minutes, 37° C.) to compound VI, compound VIII (1 μM) or vehicle and stimulated with FMLP (10^−7M, 37° C.) (as in FIG. 4e). % Inhibition after 10 second exposure to FMLP is reported as mean±SEM for n=4, d≧8. *p <0.05 in Student's paired t-test compared with control, while “NS” indicates no significant change compared to incubations in the presence of vehicle (ethanol 0.2%) alone. Stereochemistry of PSDP and PSMP (FIG. 4f) were assigned by routine methods (Poulter, C. D. and Rilling, H. C. Acc. Chem. Res. 11, 307-313, (1978), the teachings of which are hereby incorporated by reference).

A further assay relates to human neutrophils. Briefly: FMLP-stimulated 1,4,5-inositol triphosphate (IP3) formation as surrogate for phospholipase C activity. The following applies: nM-μM amounts. Format: cell-based. The protocol: as §1
In addition to PLD, phospholipase C plays a critical role in intracellular signaling via the hydrolysis of inositol lipids to diacyl glyceride (DAG) and inositol trisphosphate (IP3) to effect a cascade of cellular events in response to pro-inflammatory stimuli. DAG activates protein kinases and is converted, in part, to phosphatidic acid by DAG kinase. Therefore, PLC together with DAG kinase provides a second major source of phosphatidic acid in human neutrophils (Agwu, DE, et al., Journal of Clinical Investigation 1991; 88:531). […] To this end, the impact of PSDP on fMLP-stimulated IP3 formation as a surrogate for phospholipase C activity was examined (FIG. 4e).
Amersham's D-myo-inositol 1,4,5-trisphosphate (IP3) [^3H] assay was used for this procedure (Amersham code TRK 1000, including product assay, the contents of which are incorporated herein by reference). The assay is based on procedures developed by Takata S. et al. J. Clin. Invest. 93:499 (1994) and Dillon S. B. et al. J. Biol. Chem. 262:11546 (1987), the contents of which are incorporated herein by reference in their entirety. [drawing 24] […]

The subject of assay [1] is electroporated neutrophils. Briefly: Superoxide anion generation (NADPH oxidase activity) by electroporated neutrophils. Format: cell-based, human.
From the text: To test the impact of compounds VI and VIII on neutrophil responses, the isolated lipids were introduced into neutrophils by electroporation prior to determining NADPH oxidase activity. […] Prenyl cysteine analogues can disrupt G-protein interaction with activated FMLP receptors (Scheer, A. & Gierschik, P. Biochemistry. 34,4952-4961 (1995), the teachings of which are incorporated herein by reference); therefore to determine compound VI's level of action, neutrophil superoxide anion generation was examined in the presence of phorbol 12-myristate 13-acetate (PMA), a potent trigger for O2- production which bypasses cell surface receptors to stimulate protein kinase C and subsequent NADPH assembly (see for example, Baggiolini, M., Boulay, F., Badwey, J. A. & Curnutte, J. T. FASEB J. 7, […] (1993); FIG. 3c).
After electroporation, cells in cytochrome c (0.7 mg/ml) were exposed (10 min, 37° C.) to PMA (10^−7 M), FMLP (10^−7 M) plus cytochalasin b (15 μg/ml), compound VI (1 μM) or compound VIII (1 μM) and supernatants monitored at 550 nm. Values represent the mean±SEM for n≧4.
as §1

Regarding `CCCCCCCCCC(=O)OC[C@H](COP(=O)(O)O)OC(=O)CCCCCCCCC` [phosphatitic acid], the “rate of superoxide anion generation (O2- production)” value in the assay with neutrophil sonicates was determined as 1.34 nmoles/mg protein/min.

Consider “GM-CSF: granulocyte/monocyte-colony stimulating factor, cytokine”, for which, in the assay on PMN, the “increase of 32PO4 incorporation into compound VI” value is given as 45.0% and the “increase of 32PO4 incorporation into compound VIII” value came to 84.1%.

For the compound `CC(C)=CCC/C(C)=C/CC/C(C)=C/C1C(COP(=O)(O)O)C1(C)CC/C=C(\C)CCC=C(C)C` (stereo in doubt) [Compound VIII, presqualene monophosphate], in the assay on neutrophils (no agonist), the “stimulation of adhesion by the compound alone” value was “neither compound VI nor VIII alone stimulated”. For the same compound, the “inhibition of FMLP-stimulated homotypic adhesion” value in the assay on neutrophils (μM levels) is on record as “not”. Besides, in the assay on human neutrophils, the “inhibition of 1,4,5-inositol-triphosphate formation” value is “not”. The “influence on PMA-stimulated O2- production” value in assay [1] (PMA 10^-7 M, electroporated neutrophils) is listed as “not significantly influenced”. Further, the “inhibition of neutrophil superoxide anion generation” value in assay [1] (nM-μM amounts) was “not”. For the same compound, in assay [1] (nM-μM quantities, electroporated neutrophils), the “FMLP-triggered O2- production in the presence of the compound” value is on record as “unaltered”. For the same compound, the “stimulation of O2- production by the compound alone” value in assay [1] (no agonist, 1 μM (FIG. 3c)) is listed as “neither compound VI nor VIII alone stimulated”.

Turning to `CCCCC/C=C\C/C=C\C/C=C\C/C=C\CCCC(=O)O` [arachidonic acid], the “rate of superoxide anion generation (O2- production)” value in the assay on neutrophil sonicates was determined as 1.38 nmoles/mg protein/min.
